Measured values published in US20230027066A1 (Urovant Sciences GmbH, priority 2019, published 2023).

Columns and labels:
CYP2D6 = CYP2D6 (Homo sapiens, UniProt P10635); test: drug interaction study of vibegron and tolterodine (sensitive CYP2D6 substrate); conditions: vibegron 100 mg QD at steady state
[1] = ABPM study, adverse events; format: in vivo, human; conditions: 75 mg, 28 days
Procedure: Safety was evaluated by assessment of clinical laboratory tests, physical examinations, and vital signs measurements from office visits at various time points during the study, and by the documentation of AEs.
Safety Set (SAF): All subjects who received at least one dose of double-blind study treatment were included in the SAF. Subjects were included in the treatment group corresponding to the Study Treatment that was actually received. This was the population used to summarize safety analyses collected during clinic visits and correspondence with site staff; summarization of baseline/demographic characteristics also presented for the SAF.

[2] = Phase 1 multiple-dose study in healthy subjects, maximum MA4 heart rate; format: in vivo, human; conditions: for Maximum MA4 HR (maximum change from baseline in moving average of heart rate over 4 hours postdose), LS mean (90% CI) / Maximum MA4 HR, difference from placebo (90% CI): Day 14
Procedure: More intensive assessments of heart rate and blood pressure were performed in healthy volunteers in several Phase 1 studies. […] Doses ranged from 25 to 400 mg once daily for 7 to 28 days depending on the cohort. Least squares mean and 90% confidence intervals of maximum change from baseline in moving average of heart rate over 4 hours postdose (MA4 HR) are presented in Table 7.

[3] = tested on: males and females with OAB; test: Phase 3 study of vibegron 50 mg and 100 mg, 12 weeks, efficacy; format: in vivo, human

CYP2D6, sequence (P10635 whole entry): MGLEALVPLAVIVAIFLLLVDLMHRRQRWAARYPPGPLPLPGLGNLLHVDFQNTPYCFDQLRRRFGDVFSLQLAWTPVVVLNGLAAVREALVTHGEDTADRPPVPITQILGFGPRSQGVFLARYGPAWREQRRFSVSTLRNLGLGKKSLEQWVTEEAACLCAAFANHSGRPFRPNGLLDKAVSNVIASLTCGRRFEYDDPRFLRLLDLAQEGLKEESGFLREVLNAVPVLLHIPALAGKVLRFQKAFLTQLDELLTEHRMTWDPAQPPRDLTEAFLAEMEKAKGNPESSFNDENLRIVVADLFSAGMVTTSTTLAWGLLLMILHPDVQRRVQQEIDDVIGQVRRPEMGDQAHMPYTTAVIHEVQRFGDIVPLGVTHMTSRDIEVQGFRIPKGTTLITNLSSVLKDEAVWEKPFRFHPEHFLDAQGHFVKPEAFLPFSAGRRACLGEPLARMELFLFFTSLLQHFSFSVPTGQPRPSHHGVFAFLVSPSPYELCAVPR

O=C(Nc1ccc(C[C@@H]2CC[C@H]([C@H](O)c3ccccc3)N2)cc1)[C@@H]1CCc2nccc(=O)n21 [Vibegron, (6S)-N-[4-[[(2S,5R)−5-[(R)-hydroxy(phenyl)methyl]pyrrolidin−2-yl]methyl]phenyl]−4-oxo−7,8-dihydro−6H-pyrrolo[1,2-a]pyrimidine−6-carboxamide]
inhibition of CYP2D6 (conclusion from tolterodine interaction study) (CYP2D6): does not inhibit CYP2D6 | Discontinued the study: Adverse Event, subjects n ([1]; Randomized N = 106): 2 | AECIs ([1]; Safety N = 106): 8 (7.5) n (%) | AEs Leading to Treatment Discontinuation ([1]; Safety N = 106): 3 (2.8) n (%) | Adverse event: Blood pressure increased ([1]; Safety N = 106): 0 n (%) | Adverse event: Constipation ([1]; Safety N = 106): 2 (1.9) n (%) | Adverse event: Diarrhea ([1]; Safety N = 106): 3 (2.8) n (%) | Adverse event: Dry mouth ([1]; Safety N = 106): 3 (2.8) n (%) | Adverse event: Fatigue ([1]; Safety N = 106): 3 (2.8) n (%) | Adverse event: Haematuria ([1]; Safety N = 106): 3 (2.8) n (%) | Adverse event: Headache ([1]; Safety N = 106): 4 (3.8) n (%) | Adverse event: Hypertension ([1]; Safety N = 106): 5 (4.7) n (%) | Adverse event: Hypotension ([1]; Safety N = 106): 1 (0.9) n (%) | Adverse event: Increased residual urine ([1]; Safety N = 106): 0 n (%) | Adverse event: Nasopharyngitis ([1]; Safety N = 106): 3 (2.8) n (%) | Adverse event: Nausea ([1]; Safety N = 106): 3 (2.8) n (%) | Adverse event: Tachycardia ([1]; Safety N = 106): 0 n (%) | Adverse event: Upper respiratory tract infection ([1]; Safety N = 106): 5 (4.7) n (%) | Adverse event: Urinary retention ([1]; Safety N = 106): 1 (0.9) n (%) | Adverse event: Urinary tract infection ([1]; Safety N = 106): 3 (2.8) n (%) | Fatal adverse event ([1]; Safety N = 106): 0 n (%) | Serious adverse event (SAE) ([1]; Safety N = 106): 1 (0.9) n (%) | Treatment emergent Adverse event (AE) ([1]; Safety N = 106): 49 (46.2) n (%) | Treatment-related AECIs ([1]; Safety N = 106): 3 (2.8) n (%) | Treatment-related SAE by the investigator ([1]; Safety N = 106): 0 n (%) | Maximum MA4 HR (maximum change from baseline in moving average of heart rate over 4 hours postdose), LS mean (90% CI) ([2]; vibegron 25 mg once daily): 1.47 (−3.24, 6.17) bpm | Maximum MA4 HR, difference from placebo (90% CI) ([2]; vibegron 25 mg once daily): −1.60 (−7.09, 3.88) bpm | Maximum MA4 HR (maximum change from baseline in moving average of heart rate over 4 hours postdose), LS mean (90% CI) ([2]; vibegron 50 mg once daily): 1.50 (−2.79, 5.79) bpm | Maximum MA4 HR, difference from placebo (90% CI) ([2]; vibegron 50 mg once daily): −1.57 (−6.70, 3.56) bpm | maximum MA4 HR, difference from placebo ([2]; vibegron 100 mg): < 1 bpm | Maximum MA4 HR (maximum change from baseline in moving average of heart rate over 4 hours postdose), LS mean (90% CI) ([2]; vibegron 100 mg once daily): 3.28 (−1.02, 7.57) bpm | Maximum MA4 HR, difference from placebo (90% CI) ([2]; vibegron 100 mg once daily): 0.21 (−4.93, 5.34) bpm | Maximum MA4 HR (maximum change from baseline in moving average of heart rate over 4 hours postdose), LS mean (90% CI) ([2]; vibegron 150 mg once daily): 3.17 (−1.13, 7.46) bpm | Maximum MA4 HR, difference from placebo (90% CI) ([2]; vibegron 150 mg once daily): 0.10 (−5.04, 5.23) bpm | Maximum MA4 HR (maximum change from baseline in moving average of heart rate over 4 hours postdose), LS mean (90% CI) ([2]; vibegron 200 mg once daily): 5.67 (0.96, 10.37) bpm | Maximum MA4 HR, difference from placebo (90% CI) ([2]; vibegron 200 mg once daily): 2.60 (−2.89, 8.08) bpm | Maximum MA4 HR (maximum change from baseline in moving average of heart rate over 4 hours postdose), LS mean (90% CI) ([2]; vibegron 300 mg once daily): 9.06 (4.76, 13.35) bpm | Maximum MA4 HR, difference from placebo (90% CI) ([2]; vibegron 300 mg once daily): 5.98 (0.85, 11.12) bpm | Maximum MA4 HR (maximum change from baseline in moving average of heart rate over 4 hours postdose), LS mean (90% CI) ([2]; vibegron 400 mg once daily): 10.33 (6.04, 14.63) bpm | Maximum MA4 HR, difference from placebo (90% CI) ([2]; vibegron 400 mg once daily): 7.26 (2.13, 12.39) bpm | Micturitions: LS mean placebo adjusted change from baseline (95% CI) at Week 12 ([3]; vibegron 50 mg once daily): −0.86 (−1.12, −0.60) | Total incontinence episodes: LS mean placebo adjusted change from baseline (95% CI) at Week 12 ([3]; vibegron 50 mg once daily): −0.30 (−0.49, −0.12) | Urge urinary incontinence episodes: LS mean placebo adjusted change from baseline (95% CI) at Week 12 ([3]; vibegron 50 mg once daily): −0.27 (−0.44, −0.10) | Urgency episodes: LS mean placebo adjusted change from baseline (95% CI) at Week 12 ([3]; vibegron 50 mg once daily): −0.51 (−0.76, −0.25) | Micturitions: LS mean placebo adjusted change from baseline (95% CI) at Week 12 ([3]; vibegron 100 mg once daily): −0.81 (−1.07, −0.55) | Total incontinence episodes: LS mean placebo adjusted change from baseline (95% CI) at Week 12 ([3]; vibegron 100 mg once daily): −0.43 (−0.61, −0.24) | Urge urinary incontinence episodes: LS mean placebo adjusted change from baseline (95% CI) at Week 12 ([3]; vibegron 100 mg once daily): −0.39 (−0.55, −0.22) | Urgency episodes: LS mean placebo adjusted change from baseline (95% CI) at Week 12 ([3]; vibegron 100 mg once daily): −0.67 (−0.93, −0.42)
